Measurements reported in ChEMBL document CHEMBL1201862, “PubChem BioAssay data set” (2004).
“And” between values parts separate entries of the source, which are not always exact repeats. Equal values may be shown once.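 Five concentrations, 48 hours, 96-well plates. Here, GI50 denotes the concentration required for 50% inhibition of growth.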 The source made the active and inactive calls. No stated cut-off is given here; in the data, active = GI50 up to about 1.1 µM and inactive = higher.

How the values were obtained:
Test in all cases: growth of human tumour cells (NCI), 48 h
CCRF-CEM = system: CCRF-CEM
M14 = system: M14
A498 = system: A498
EKVX = system: EKVX
U-251 = system: U-251
786-0 = system: 786-0
HL-60 = system: HL-60
SW-620 = system: SW-620
SR = system: SR
SK-OV-3 = system: SK-OV-3
ACHN = system: ACHN
MDA-MB-231 = system: MDA-MB-231
NCI-H226 = system: NCI-H226
OVCAR-4 = system: OVCAR-4
SF-268 = system: SF-268
UO-31 = system: UO-31
CAKI-1 = system: CAKI-1
SNB-75 = system: SNB-75
HCT-116 = system: HCT-116
HOP-92 = system: HOP-92

SMILES	GI50 (CCRF-CEM)	GI50 (M14)	GI50 (A498)	GI50 (EKVX)	GI50 (U-251)	GI50 (786-0)	GI50 (HL-60)	GI50 (SW-620)	GI50 (SR)	GI50 (SK-OV-3)	GI50 (ACHN)	GI50 (MDA-MB-231)	GI50 (NCI-H226)	GI50 (OVCAR-4)	GI50 (SF-268)	GI50 (UO-31)	GI50 (CAKI-1)	GI50 (SNB-75)	GI50 (HCT-116)	GI50 (HOP-92)
OC(CBr)C(O)C(O)C(O)CBr (centres undefined)	14.3 µM (inactive) and > 21.6 µM (inactive)	28.1 µM (inactive)	> 61.9 µM (inactive)	> 75.7 µM (inactive)	> 43.2 µM (inactive) and > 63.8 µM (inactive)	13.7 µM (inactive)	8.73 µM (inactive) and 13.3 µM (inactive)	> 87.7 µM (inactive)	> 100 µM (inactive)	> 55.1 µM (inactive) and > 53.1 µM (inactive)	8.09 µM (inactive)	> 100 µM (inactive)	> 100 µM (inactive) and > 74.1 µM (inactive)	> 100 µM (inactive) and > 81.5 µM (inactive)	–	–	–	–	–	–
O=c1cc(-c2ccccc2)nc2[nH]ccn12	> 10 µM (inactive)	> 10 µM (inactive)	> 10 µM (inactive)	> 10 µM (inactive)	> 10 µM (inactive)	–	> 10 µM (inactive)	> 10 µM (inactive)	> 10 µM (inactive)	> 10 µM (inactive)	> 10 µM (inactive)	> 10 µM (inactive)	> 10 µM (inactive)	> 10 µM (inactive)	> 10 µM (inactive)	7.87 µM (inactive)	> 10 µM (inactive)	6.25 µM (inactive)	> 10 µM (inactive)	–
COc1cc2c(cc1OC)C(=O)/C(=C/c1ccc(N(C)C)cc1)CC2	9.77 µM (inactive)	> 10 µM (inactive)	–	> 10 µM (inactive)	> 10 µM (inactive)	> 10 µM (inactive)	> 10 µM (inactive)	> 10 µM (inactive)	> 10 µM (inactive)	> 10 µM (inactive)	> 10 µM (inactive)	> 10 µM (inactive)	> 10 µM (inactive)	> 10 µM (inactive)	> 10 µM (inactive)	> 10 µM (inactive)	> 10 µM (inactive)	–	> 10 µM (inactive)	> 10 µM (inactive)
COc1ccc2c(c1)C(=O)CC(C(N)=O)C2 (centres undefined)	> 100 µM (inactive)	> 100 µM (inactive)	–	> 100 µM (inactive)	> 100 µM (inactive)	> 100 µM (inactive)	> 100 µM (inactive)	> 100 µM (inactive)	> 100 µM (inactive)	> 100 µM (inactive)	> 100 µM (inactive)	> 100 µM (inactive)	> 100 µM (inactive)	> 100 µM (inactive)	> 100 µM (inactive)	> 100 µM (inactive)	> 100 µM (inactive)	53.1 µM (inactive)	> 100 µM (inactive)	> 100 µM (inactive)
CCN1CCC(O)(c2ccc(Oc3ccc(C)cc3)cc2)C(C(=O)c2ccc(Oc3ccc(C)cc3)cc2)C1 (centres undefined)	5.13 µM (inactive)	7.43 µM (inactive)	0.426 µM (active)	15.6 µM (inactive)	11.6 µM (inactive)	4.99 µM (inactive)	1.68 µM (inactive)	12.9 µM (inactive)	–	16.1 µM (inactive)	13.2 µM (inactive)	6.18 µM (inactive)	14.1 µM (inactive)	1.94 µM (inactive)	17 µM (inactive)	3.77 µM (inactive)	12.9 µM (inactive)	7.16 µM (inactive)	6.41 µM (inactive)	10 µM (inactive)
COc1ccc(-c2c(-c3ccccc3)c(C)nc3[nH]c(=S)[nH]c(=S)c23)cc1OC	24.7 µM (inactive)	36.1 µM (inactive)	28.2 µM (inactive)	54.8 µM (inactive)	33.4 µM (inactive)	35.6 µM (inactive)	31.8 µM (inactive)	61.7 µM (inactive)	–	37 µM (inactive)	30.3 µM (inactive)	26.9 µM (inactive)	38 µM (inactive)	> 100 µM (inactive)	23.9 µM (inactive)	21.6 µM (inactive)	47 µM (inactive)	42 µM (inactive)	22 µM (inactive)	33.8 µM (inactive)
CCc1[nH]c(=O)c2oc3cc4ccccc4cc3c2c1C(=O)O	–	> 10 µM (inactive)	–	> 10 µM (inactive)	–	> 10 µM (inactive)	> 10 µM (inactive)	> 10 µM (inactive)	> 10 µM (inactive)	–	> 10 µM (inactive)	0.00588 µM (active)	> 10 µM (inactive)	> 10 µM (inactive)	> 10 µM (inactive)	> 10 µM (inactive)	–	> 10 µM (inactive)	> 10 µM (inactive)	> 10 µM (inactive)
Cc1ccc(P(c2ccc(C)cc2)c2ccc(C)cc2)cc1	20.4 µM (inactive)	19.3 µM (inactive)	27.1 µM (inactive)	28.3 µM (inactive)	14.3 µM (inactive)	–	28.8 µM (inactive)	26.2 µM (inactive)	–	30.4 µM (inactive)	23.2 µM (inactive)	25.9 µM (inactive)	–	19.8 µM (inactive)	24.3 µM (inactive)	< 0.01 µM (active)	23.2 µM (inactive)	15.2 µM (inactive)	12.4 µM (inactive)	5.66 µM (inactive)
